Assay results published in the NIST ThermoML archive (doi:10.1021/je700063c).
Numbers after ± are expanded uncertainties.

Details: Liquid; for mass density: 298.15 K, 101.33 kPa, Pycnometric method; for Normal boiling temperature: Distillation

Row | mass density | Normal boiling temperature | Structure (SMILES)
1 | 797.8 ± 0.7 kg/m3 | 107.77 ± 0.1 °C | CC(C)CO [2-methyl-1-propanol]
2 | 805.8 ± 0.7 kg/m3 |  | CCCCO [butan-1-ol]
3 | 802.4 ± 0.7 kg/m3 | 99.46 ± 0.1 °C | CCC(C)O (stereo not given) [butan-2-ol]
